Laboratory results from patent US20090304689A1, “METHODS FOR THE IDENTIFICATION OF POLYPEPTIDE ANTIGENS ASSOCIATED WITH DISORDERS INVOLVING ABERRANT CELL PROLIFERATION AND COMPOSITIONS USEFUL FOR THE TREATMENT OF SUCH DISORDERS” (priority 2001, published 2009).

Legend:
SK-BR3 cells = experiment: Anti-proliferative effect / cytotoxicity on SK-BR-3 breast tumor cells (crystal violet, FIG. 4); format: cell-based, human
Experimental: SK-BR-3 human breast carcinoma cells were from The American Type Culture Collection (Rockville, Md.). […] SK-BR-3 cells were cultured in high glucose DMEM:Ham's F-12 (50:50) supplemented with 10% heat-inactivated fetal bovine serum and 2 mM 1-glutamine (all from GIBCO/BRL, Grand Island, N.Y.).
Cells were plated at the following densities in 96-well microtiter culture plates: 2×10^4 per well for SK-BR-3; 10^4 per well for HMEC, SAEC and NHEK; and 3.5×10^4 per well for human hepatocytes (pre-plated on collagen-coated plates by In Vitro Technologies) and allowed to adhere overnight in the incubator (37° C., 5% CO2). […] After a 3 day incubation, the media were removed, the cell monolayers washed once with PBS and stained with crystal violet dye (0.5% crystal violet, 20% methanol).
For all experiments, after removal of the crystal violet dye, plates were allowed to air-dry overnight. The dye was then eluted with 0.1 M sodium citrate:ethanol (50:50), pH 4.2 and the plates read in an SLT 340 ATC plate-reader at a wavelength of 540 nm. Each treatment group consisted of 4 replicates and the data are represented as mean O.D.540+/− standard error or relative to cell proliferation as compared to untreated control cells (mean+/−s.e.).

[1] = clinical trials discontinued; cited from earlier work

Compound: RITUXAN®: control, unrelated monoclonal antibody RITUXAN®
- cell growth inhibition (SK-BR3 cells): did not inhibit cell growth

Compound: COc1cc2cc(c1Cl)N(C)C(=O)C[C@H](OC(=O)[C@H](C)N(C)C(C)=O)[C@]1(C)O[C@H]1[C@H](C)[C@@H]1C[C@@](O)(NC(=O)O1)[C@H](OC)/C=C/C=C(\C)C2 [maytansine]
- adverse effects in clinical trials [1]: peripheral neuropathy
